Data on 47 molecules can be found in the Biogen ADME set (Fang et al. 2023).

For the data set the following is noted: for aqueous solubility: pH 6.8.

Molecules are shown by their SMILES. In brackets after ≈: the same amount, converted by molar mass.

Usually aqueous solubility stands for the dissolved amount per volume that the medium holds. For the molecule `CCOC(=O)c1ccc(NC(=O)Cn2cnc3ccccc32)cc1`, the MDR1-MDCK efflux ratio was found to be 4.28; the intrinsic clearance, human liver microsomes was 7.03 mL/min/kg; the intrinsic clearance, rat liver microsomes is 521 mL/min/kg; the aqueous solubility is 18.4 µg/mL (≈ 56.9 µM).

`CCN1C(=O)C(C)(C)COc2cc(NS(=O)(=O)c3cc(C)c(C)cc3OC)ccc21` yielded an intrinsic clearance, human liver microsomes of 445 mL/min/kg and an intrinsic clearance, rat liver microsomes of 9320 mL/min/kg.

The molecule `CCC(=O)Nc1sc2c(c1C#N)CCC2` returned an intrinsic clearance, human liver microsomes of 156 mL/min/kg and an intrinsic clearance, rat liver microsomes of 381 mL/min/kg.

As to `Cc1cc(C(=O)N(C)c2nc3ccccc3s2)cc(O)n1`, the MDR1-MDCK efflux ratio worked out at 4; the intrinsic clearance, human liver microsomes is not above 4.74 mL/min/kg; the intrinsic clearance, rat liver microsomes was 16.1 mL/min/kg.

Regarding `Cc1nn(C)c2nc(C(C)C)cc(C(=O)O)c12`, the intrinsic clearance, human liver microsomes was not above 4.74 mL/min/kg; the intrinsic clearance, rat liver microsomes is not above 10.7 mL/min/kg; the aqueous solubility amounted to 32.5 µg/mL (≈ 139 µM).

Turning to `CCCCCCNc1ncnc2[nH]ccc12`, the MDR1-MDCK efflux ratio stood at 0.498; the intrinsic clearance, human liver microsomes amounted to 70.9 mL/min/kg; the intrinsic clearance, rat liver microsomes turned out to be 574 mL/min/kg; the aqueous solubility amounted to 18.6 µg/mL (≈ 85.1 µM).

In the case of `CN(C)c1cccc(C(=O)N2CCCC(c3cccc(-c4cccs4)n3)C2)c1` (stereo unspecified), the MDR1-MDCK efflux ratio turned out to be 0.647; the intrinsic clearance, human liver microsomes amounted to 499 mL/min/kg; the intrinsic clearance, rat liver microsomes was determined as 3630 mL/min/kg; the aqueous solubility was determined as 2.1 µg/mL (≈ 5.36 µM).

For the molecule `CS(=O)(=O)c1ccc(-c2nnc(/C=C/c3nnc(-c4ccc(C#N)cc4)o3)n2-c2ccccc2Cl)nc1`, the MDR1-MDCK efflux ratio was found to be 38.3 and the aqueous solubility stood at 0.9 µg/mL (≈ 1.7 µM).

`O=C(Nc1cccc2cnccc12)c1cccc(F)c1` had an intrinsic clearance, human liver microsomes of 34.9 mL/min/kg; an intrinsic clearance, rat liver microsomes of 132 mL/min/kg; an aqueous solubility of 47.6 µg/mL (≈ 179 µM).

For `Cc1noc([C@@H]2C[C@H](NC(=O)c3ccc(F)cc3)CN2C)n1`, the MDR1-MDCK efflux ratio amounted to 0.792; the intrinsic clearance, human liver microsomes came out at 6.88 mL/min/kg; the intrinsic clearance, rat liver microsomes is 16.3 mL/min/kg; the aqueous solubility amounted to 16.2 µg/mL (≈ 53.2 µM).

`Cc1cc(F)ccc1NC(=O)Cn1cncn1` returned an intrinsic clearance, human liver microsomes not above 4.74 mL/min/kg; an intrinsic clearance, rat liver microsomes not above 10.7 mL/min/kg; an aqueous solubility of 35.1 µg/mL (≈ 150 µM).

On to `CCOC(=O)C1(Cc2cc(-c3ccc(F)cc3)no2)CCN(Cc2ccccc2O)CC1`, for which the MDR1-MDCK efflux ratio was 2.16; the intrinsic clearance, human liver microsomes worked out at 155 mL/min/kg; the intrinsic clearance, rat liver microsomes was 790 mL/min/kg; the aqueous solubility stood at 6.94 µg/mL (≈ 15.8 µM).

Take `OCC1CN(c2nc3cc(F)ccc3o2)C1`: the MDR1-MDCK efflux ratio came out at 0.704; the intrinsic clearance, human liver microsomes is not above 4.74 mL/min/kg; the intrinsic clearance, rat liver microsomes turned out to be 17.2 mL/min/kg.

Consider `CNC(=O)C1(Cc2ccc(-c3cccnc3)cc2)CCN(Cc2cccc(F)c2)C1` (stereo unspecified), for which the MDR1-MDCK efflux ratio was found to be 1.32; the fraction unbound, human plasma was determined as 0.0676; the fraction unbound, rat plasma was 0.034; the intrinsic clearance, human liver microsomes came to 280 mL/min/kg. This molecule gave an intrinsic clearance, rat liver microsomes of 982 mL/min/kg.

In the case of `Cc1cc(OCCCS(C)(=O)=O)cc(C)c1-c1cccc(COc2ccc3c(c2)OC[C@@H]3CC(=O)O)c1`, the MDR1-MDCK efflux ratio came to 6.84; the intrinsic clearance, human liver microsomes came to 5.67 mL/min/kg; the intrinsic clearance, rat liver microsomes came to 28.3 mL/min/kg.

With `CCc1nnc(N2CC(N(C)C)C2)c(C#N)c1CC`, the MDR1-MDCK efflux ratio turned out to be 0.843; the intrinsic clearance, human liver microsomes stood at 9.15 mL/min/kg; the intrinsic clearance, rat liver microsomes came out at 130 mL/min/kg.

Consider `O=C1CCC(=O)N1CCSc1ncc(-c2ccc(F)cc2)[nH]1`, for which the MDR1-MDCK efflux ratio turned out to be 2.4; the intrinsic clearance, human liver microsomes is 35.6 mL/min/kg; the intrinsic clearance, rat liver microsomes turned out to be 717 mL/min/kg.

As for `O=C(Cc1ccc(F)cc1)NCCn1cccnc1=O`, the MDR1-MDCK efflux ratio amounted to 9.23; the intrinsic clearance, human liver microsomes was not above 4.74 mL/min/kg; the intrinsic clearance, rat liver microsomes came out at 22.7 mL/min/kg; the aqueous solubility was determined as 63.3 µg/mL (≈ 230 µM).

With `CCONC(=O)c1sc(C)nc1C`, the MDR1-MDCK efflux ratio amounted to 0.788; the intrinsic clearance, human liver microsomes was not above 4.74 mL/min/kg; the intrinsic clearance, rat liver microsomes is not above 10.7 mL/min/kg; the aqueous solubility was 29 µg/mL (≈ 145 µM).

As for `C[C@@H](NC(=O)N1CCC2(CCN(C)CC2)C1)c1ccc(F)cc1`, the MDR1-MDCK efflux ratio was 1.75; the intrinsic clearance, human liver microsomes is not above 4.74 mL/min/kg; the intrinsic clearance, rat liver microsomes was not above 10.7 mL/min/kg.

As to `Nc1nnc(SCCSC2CCCCC2)n1C1CC1`, the MDR1-MDCK efflux ratio is 3.81; the intrinsic clearance, human liver microsomes is 48.5 mL/min/kg; the intrinsic clearance, rat liver microsomes was 582 mL/min/kg.

`CCOC(=O)N1CCC(C(=O)Nc2cccc(C)c2)CC1` displayed an aqueous solubility of 56.3 µg/mL (≈ 194 µM).

Consider `Cc1nc(-c2ccc(S(=O)(=O)N(C)C)cc2)cc(C(C)C)n1`, for which the MDR1-MDCK efflux ratio is 0.669; the intrinsic clearance, human liver microsomes worked out at 34.6 mL/min/kg; the intrinsic clearance, rat liver microsomes turned out to be 2230 mL/min/kg.

`Cc1nonc1C(=O)Nc1cccnc1N(C)C` yielded an intrinsic clearance, human liver microsomes of 16.6 mL/min/kg and an intrinsic clearance, rat liver microsomes of 173 mL/min/kg.

As to `Cc1nccc(NC(=O)c2ccc(Cl)nc2Cl)n1`, the MDR1-MDCK efflux ratio was determined as 0.548; the intrinsic clearance, human liver microsomes came out at 5.24 mL/min/kg; the intrinsic clearance, rat liver microsomes came to 15.2 mL/min/kg.

As for `CN(Cc1cnc2ccccc2n1)S(=O)(=O)N1CCCCCC1`, the MDR1-MDCK efflux ratio came out at 0.62; the intrinsic clearance, human liver microsomes was found to be 230 mL/min/kg; the intrinsic clearance, rat liver microsomes is 5760 mL/min/kg.

Take `Cc1cnn(CC(=O)NCCCn2cc(Cl)cn2)c1`: the MDR1-MDCK efflux ratio is 2.34; the intrinsic clearance, human liver microsomes was not above 4.74 mL/min/kg; the intrinsic clearance, rat liver microsomes amounted to 47.2 mL/min/kg.

Regarding `CCN1CCC(CNC(=O)c2cc(C)nc3cc(F)ccc23)CC1`, the MDR1-MDCK efflux ratio came out at 25.4; the intrinsic clearance, human liver microsomes was not above 4.74 mL/min/kg; the intrinsic clearance, rat liver microsomes is not above 10.7 mL/min/kg; the aqueous solubility came to 37.2 µg/mL (≈ 113 µM).

For `CC(C)(C(=O)NCc1ccccn1)c1ccccc1`, the MDR1-MDCK efflux ratio came out at 0.736; the intrinsic clearance, human liver microsomes was not above 4.74 mL/min/kg; the intrinsic clearance, rat liver microsomes stood at 138 mL/min/kg; the aqueous solubility was found to be 77.6 µg/mL (≈ 305 µM).

For `O=C(Cc1cccs1)NCc1ccccc1F`, the MDR1-MDCK efflux ratio is 0.641; the intrinsic clearance, human liver microsomes was 20.9 mL/min/kg; the intrinsic clearance, rat liver microsomes was 133 mL/min/kg; the aqueous solubility is 34.8 µg/mL (≈ 140 µM).

Consider `O=c1c2cccc(C(F)(F)F)c2ncn1C1CCCC1`, for which the MDR1-MDCK efflux ratio was 0.528; the intrinsic clearance, human liver microsomes came out at 115 mL/min/kg; the intrinsic clearance, rat liver microsomes was determined as 317 mL/min/kg.

As to `N#Cc1cc(-c2ccccc2)sc1N`, the aqueous solubility turned out to be 3 µg/mL (≈ 15 µM).

In the case of `Clc1ccc2c(Oc3cccnc3)ncnc2c1`, the MDR1-MDCK efflux ratio is 0.654; the intrinsic clearance, human liver microsomes was found to be 16.7 mL/min/kg; the intrinsic clearance, rat liver microsomes is 47 mL/min/kg; the aqueous solubility is 39.7 µg/mL (≈ 154 µM).

Molecule `C[C@@H](CN1CCC(n2c(=O)[nH]c3cc(Cl)ccc32)CC1)NC(=O)c1ccc2ccccc2c1` had an intrinsic clearance, human liver microsomes of 104 mL/min/kg; an intrinsic clearance, rat liver microsomes of 668 mL/min/kg; an aqueous solubility of 3.85 µg/mL (≈ 8.32 µM).

`Cc1cc(C)c(NC(=O)c2cc(Cl)ccc2F)c(C)n1`: the MDR1-MDCK efflux ratio was 0.756; the intrinsic clearance, human liver microsomes amounted to 8.2 mL/min/kg; the intrinsic clearance, rat liver microsomes is 40 mL/min/kg; the aqueous solubility is 62.8 µg/mL (≈ 215 µM).

Consider `Cc1ccsc1-c1nsc(NC(=O)CN(C)C)n1`, for which the MDR1-MDCK efflux ratio was determined as 0.874; the intrinsic clearance, human liver microsomes was not above 4.74 mL/min/kg; the intrinsic clearance, rat liver microsomes is 548 mL/min/kg.

`O=c1ncn2nc(Sc3ccc(F)cc3F)ccc2c1-c1c(Cl)cccc1Cl`: the MDR1-MDCK efflux ratio worked out at 8.01; the intrinsic clearance, human liver microsomes was determined as 14.6 mL/min/kg; the intrinsic clearance, rat liver microsomes stood at 90.4 mL/min/kg; the aqueous solubility worked out at 12.9 µg/mL (≈ 29.6 µM).

Take `CCCn1ncc2[nH]c(-c3cc(Cn4cncn4)c(C)cc3C)nc21`: the MDR1-MDCK efflux ratio was determined as 90.9; the intrinsic clearance, human liver microsomes was 51.7 mL/min/kg; the intrinsic clearance, rat liver microsomes worked out at 199 mL/min/kg; the aqueous solubility amounted to 33.6 µg/mL (≈ 100 µM).

For `c1ccc(Oc2cccc(CN(CCN3CCOCC3)Cc3cccnc3)c2)cc1`, the MDR1-MDCK efflux ratio was found to be 1.33; the fraction unbound, human plasma was 0.00599; the fraction unbound, rat plasma stood at 0.0139; the intrinsic clearance, human liver microsomes turned out to be 1250 mL/min/kg. The same molecule showed an intrinsic clearance, rat liver microsomes of 3870 mL/min/kg and an aqueous solubility of 66.7 µg/mL (≈ 165 µM).

With `CCN(Cc1ccncc1)[C@@H]1CN(C(=O)c2ccccc2)C[C@H]1O`, the MDR1-MDCK efflux ratio amounted to 37.3; the intrinsic clearance, human liver microsomes turned out to be 45.2 mL/min/kg; the intrinsic clearance, rat liver microsomes came to 361 mL/min/kg; the aqueous solubility was found to be 115 µg/mL (≈ 354 µM).

With `CC(=O)N1CCN(C(=O)CS(=O)(=O)C23CC4CC(CC(C4)C2)C3)CC1`, the MDR1-MDCK efflux ratio came to 10.3; the intrinsic clearance, human liver microsomes was not above 4.74 mL/min/kg; the intrinsic clearance, rat liver microsomes amounted to 298 mL/min/kg.

Turning to `O=S(=O)(c1ccccc1)N(CC(F)(F)F)c1ccc(C(O)(C(F)(F)F)C(F)(F)F)cc1`, the intrinsic clearance, human liver microsomes is 7.61 mL/min/kg and the intrinsic clearance, rat liver microsomes turned out to be 14.6 mL/min/kg.

Molecule `Nc1nccc2ccc(-c3cccc(F)c3)cc12` registered an intrinsic clearance, human liver microsomes of 209 mL/min/kg; an intrinsic clearance, rat liver microsomes of 790 mL/min/kg; an aqueous solubility of 3 µg/mL (≈ 12.6 µM).

For the molecule `COc1ccc(-c2csc(CC(N)=O)n2)cc1`, the MDR1-MDCK efflux ratio is 0.751 and the aqueous solubility came out at 31.3 µg/mL (≈ 126 µM).

Turning to `N#Cc1cnn(-c2nc(-c3ccc(Br)s3)cs2)c1N`, the aqueous solubility was 1.9 µg/mL (≈ 5.39 µM).

With `CN1CCN(C(=O)C2(NC(=O)c3ccc(C(F)(F)F)cc3)CCCC2)CC1`, the MDR1-MDCK efflux ratio was 86; the intrinsic clearance, human liver microsomes was not above 4.74 mL/min/kg; the intrinsic clearance, rat liver microsomes was not above 10.7 mL/min/kg; the aqueous solubility was 76.1 µg/mL (≈ 199 µM).

In the case of `CCCCN(C)C(=O)Nc1cc(C)ccn1`, the MDR1-MDCK efflux ratio worked out at 0.56; the intrinsic clearance, human liver microsomes was found to be 41.3 mL/min/kg; the intrinsic clearance, rat liver microsomes was 226 mL/min/kg; the aqueous solubility was 24.9 µg/mL (≈ 113 µM).
